From patent US20260027096A1, “PHD INHIBITORS” (Oxford University Innovation Limited, priority 2023, published 2026)

What was measured:
[1] = system: human multiple myeloma cell lines; experiment: Apoptosis of multiple myeloma cell lines; assay type: cell-based; conditions: 50 μM, versus the control
Method: Apoptosis of multiple human MM cell lines derived from different patients (AWO^WT, H292, KMS12, RPMI, U266 and MM.1S) treated with vehicle control, 50 μM Daprodustat (2). Data represent mean±SEM; * p<0.05; ** p<0.01, *** p<0.001.
Viable cells were counted by trypan blue exclusion at the indicated time points. To analyse cells undergoing apoptosis, cells were suspended in binding buffer containing PE-conjugated Annexin-V or FITC-conjugated Annexin-V, and either PI or DAPI.

[2] = system: Meis1/Hoxa9-transformed AML cells lacking both Hif1α and Hif2α and control cells; experiment: Proliferation of control and Hif1α/Hif2α-deficient Meis1/Hoxa9 AML cells; assay type: cell-based, mouse; conditions: 50 μM
Description: To investigate whether HIF-α mediates the anti-leukaemic effects of PHD inhibition, Meis1/Hoxa9-transformed AML cells lacking both Hif1α and Hif2α and control cells were employed (Vukovic et al., 2015).

iMLL-AF9 AML cells = experiment: RNA-seq analysis of iMLL-AF9 AML cells; assay type: cell-based, mouse
Method: Total RNA was extracted from 500,000 leukaemic cells using RNeasy Plus Universal Mini Kit (QIAGEN, Cat. No. 73404) following the manufacture's protocol. The RNA integrity number (RIN) was determined by High Sensitivity RNA Screen Tape analysis (Agilent, Cat. No. 5067) and all RIN was >8. High sensitivity Libraries for RNA-seq were prepared from 500 ng of total RNA using the NEBNext® Ultra™ II Directional RNA Library Prep Kit for Illumina® (NEB, Cat. No. E7760) with NEBNext Poly(A) mRNA Magnetic Isolation Module (NEB, Cat. No. E7490) following the manufacture's protocol. Nine cycles of PCR were performed to amplify libraries and the pooled library was sequenced on illumina NextSeq 500 with 85 bp single-end mode at EMBL GeneCore facility.
For analysis of differentially expressed genes, adapters were trimmed with cutadapt (version 1.18) using options: -a […]-m 50, and processed reads were mapped to GRCm38 genome_tran (release 84) with HISAT2 (version 2.2.1 (Nature Methods volume 12, pages 357-360 (2015), https://www.nature.com/nmeth)) using following option: —qc-filter. Mapped reads per gene were counted with htseq-count (HTSeq version 2.0.1 (Bioinformatics, Volume 38, Issue 10, 15 May 2022, Pages 2943-2945)) providing GTF file and differentially expressed genes were analysed using DESeq2 (version 1.30.1). […]

[3] = system: OCI-AML3 cells in NBSGW recipient mice; experiment: OCI-AML3 xenotransplantation in NBSGW mice; assay type: in vivo, mouse; conditions: i.p. twice daily for 21 days
Description: (A) 100,000 THP-1 cells were transplanted into NBSGW recipient mice. […] (B-C) Percentage of human CD45+CD33+ and human CD45+CD14+ cells in the BM and spleen, respectively (n=4-5). (D) 100,000 OCI-AML3 cells were transplanted into NBSGW recipient mice. […] (E) Percentage of human CD45+CD33+CD14+ cells in the liver, BM and PB, respectively (n=3-7). (F) 2,000 LSK cells from iMLL-AF9;Control mice were sorted and transplanted into irradiated recipient mice. […] (H) LDA in secondary recipients transplanted with indicated doses of CD45.2+BM cells from primary recipients (n=9-10 per dose). (I) Plot showing Poisson statistical analysis. Circles represent the percentages of negative mice for each cell dose, triangles represent any data values with zero negative responses. Solid lines indicate the best-fit linear model, and dotted lines represent 95% CIs. LSC frequencies were calculated using the ELDA software 121. (J) Steady-state analyses of 8-to 10-week-old C57B16 mice treated with IOX5 or vehicle control 2× daily via i.p. injection for 14 days (n=5-7). (K) PB counts (n=6). (L) Total BM cellularity (n=5-9). (M) Total numbers of HSC, MPP, HPC-1 and HPC-2 populations (n=5-7). Data represent mean±SEM; * p<0.05; ** p<0.01; *** p<0.001; **** p<0.0001. […]

[4] = system: murine iMLL-AF9 LSK cells in DOX-treated recipient mice; experiment: iMLL-AF9 LSK cell transplantation AML model; assay type: in vivo, mouse; conditions: vs vehicle
Description: (A) 100,000 THP-1 cells were transplanted into NBSGW recipient mice. […] (B-C) Percentage of human CD45+CD33+ and human CD45+CD14+ cells in the BM and spleen, respectively (n=4-5). (D) 100,000 OCI-AML3 cells were transplanted into NBSGW recipient mice. […] (E) Percentage of human CD45+CD33+CD14+ cells in the liver, BM and PB, respectively (n=3-7). (F) 2,000 LSK cells from iMLL-AF9;Control mice were sorted and transplanted into irradiated recipient mice. […] (H) LDA in secondary recipients transplanted with indicated doses of CD45.2+BM cells from primary recipients (n=9-10 per dose). (I) Plot showing Poisson statistical analysis. […] LSC frequencies were calculated using the ELDA software 121. […]
For primary transplantations of leukemic cells, 100,000 Meis1/Hoxa9-transduced c-Kit^+ cells or 2,000 iMLL-AF9 Lin Sca-1^+c-Kit^+ (LSK) cells were transplanted into lethally irradiated CD45.1^+/CD45.2^+ recipient mice (together with 200,000 unfractionated support CD45.1^+ wild-type BM cells). All recipient were culled upon reaching their humane endpoint as recorded in survival curves.
For secondary transplantations of leukaemic cells, 50,000 cells harvested from primary recipients were transplanted into lethally irradiated CD45.1+/CD45.2+recipient mice (together with 200,000 unfractionated support CD45.1+wild-type BM cells). […] LSC frequency was calculated using ELDA software^121. […]

Structure (SMILES)	apoptosis [1]	proliferation of control vs Hif1α/Hif2α-deficient cells [2]	gene set enrichment analysis (GSEA) of deregulated genes (iMLL-AF9 AML cells; 50 μM vs control)	BNIP3 transcript expression (iMLL-AF9 AML cells; murine cells)	leukaemic burden [3]	survival of leukaemic mice ([4]; i.p. twice daily for 14 days)	LSC frequency (limiting dilution assay) ([4]; secondary recipients)
O=C(O)CNC(=O)c1c(O)n(C2CCCCC2)c(=O)n(C2CCCCC2)c1=O [Daprodustat, daprodustat, reference compound]	significant apoptosis	–	–	–	–	–	–
O=C(NCC1CCC(C(F)(F)F)CC1)c1c[nH]c(-n2cccn2)cc1=O (stereo not shown) [IOX5]	–	control AML cells manifest substantially reduced proliferation, while Hif½αDKO cells are refractory	significant up-regulation of hypoxia signature, HIF-1 signalling, and activation of HIF-inducible pathways	significantly upregulated	significantly reduced leukaemic burden	significantly increased survival of leukaemic mice	significantly decreased LSC frequency
